We go through 17 molecules from US9809598B2 (Merck Patent GmbH, priority 2014, dated 2017).

As usually defined, the solubility is the concentration that dissolves in the medium under given conditions. Read a high solubility as a readily soluble substance. Broadly, the microsomal CLint is a measure of how fast metabolising enzymes remove a compound, apart from limits set by blood flow. By EC50 is commonly meant the concentration giving half of the maximal effect. The term IC50 denotes the midpoint of a concentration-inhibition curve.

Series [1] is described as follows: Solubility pH 7.4. In kind it is physicochemical. To be noted: pH 7.4, aqueous buffer.
Series [2] is described as follows: Microsomal stability (intrinsic clearance), mouse liver microsomes. The series is classed as in vitro ADME. As to conditions: pH 7.4. From the text: (§1) Test Method Microsomal Stability (Intrinsic Clearance)
(§2) A microsomal stability assay is used to measure in vitro clearance (Clint). The assay involves measuring the rate of disappearance of a compound due to its intrinsic attitude to be metabolized (“intrinsic” meaning that the disappearance is not affected by other properties like permeability, binding etc. that play a role when quantifying in vivo clearance). The microsomal stability (intrinsic clearance, Clint) and thus metabolic stability is generally given as μl/min/mg protein. It can be visualized as the volume of solution that 1 mg of microsomes is able to clear of the compound in one minute.
(§3) A Tecan Genesis workstation (RSP 150/8) was used for to perform the microsomal incubations. Analysis was carried out using a Waters ACQUITY UPLC system coupled to an ABSciex API3000 mass spectrometer. Data analysis was performed using Assay Explorer (Symyx).
(§4) Chemicals • Potassium phosphate buffer: 0.05 M potassium phosphate buffer pH 7.4 containing 1 mM MgCl2 • NADPH (nicotinamide adenine dinucleotide phosphate): 22.5 mg NADPH-Na4 in 1.8 ml potassium phosphate buffer • Acetonitrile: 50 Vol % acetonitrile (1 volume acetonitrile, 1 volume water) • DMSO: 20 Vol % DMSO in water • Stock solution of 20 mg/ml human or mouse liver microsomes (protein)/ml in phosphate buffer
(§5) Stock solution of 10 mM compound in 100% DMSO
On the technique in general: Liver microsomes are vesicles of endoplasmic reticulum, rich in cytochrome P450 enzymes.

Series [3] is described as follows: Microsomal stability (intrinsic clearance), human liver microsomes. In kind it is in vitro ADME. To be noted: pH 7.4.
Text: as §1, §2, §3, §4, §5

For series [4], the system named is Tankyrases. To be noted: read-out: EC50 [M] TNKS cellular assay; DLD1 cells, 24 hours, Axin2 increase.
The target of series [5] is T1, PARP-1 (Homo sapiens, UniProt P09874).
T1 construct: purchased Enzo Life Sciences GmbH, Lörrach, Germany
In words: PARP-1 autoparsylation assay (HTRF). The series is classed as biochemical. To be noted: His-tagged Parp-1, autoparsylation HTRF. In outline: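 His-tagged enzyme auto-modifies itself using biotinylated NAD/NAD; product detected by TR-FRET between cryptate anti-His antibody and Xlent-streptavidin, as emission ratio.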
(In general: Time-resolved FRET reads energy transfer from a long-lived donor to a nearby acceptor.)

Series [6] has as its target T2, TNKS1 (Homo sapiens, UniProt O95271).
T2 construct: GST-tagged Tnks-1 (1023-1327 aa, prepared in-house); made in house
Briefly: TNKS1 activity ELISA (autoparsylation assay). The series is classed as biochemical. To be noted: GST-tagged Tnks-1 (1023-1327 aa). The essentials:
(§6)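 GST-tagged TNKS1 or TNKS2 captured on glutathione plates and allowed to auto-PARsylate with biotinylated NAD with or without compound. Biotin-ADP-ribosylated enzyme detected by streptavidin-HRP and luminescence; IC50 relative to inhibitor-free reaction.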

Series [7] has as its target T3, TNKS2 (Homo sapiens, UniProt Q9H2K2).
T3 construct: GST-tagged Tnks-2 (873-1166 aa, prepared in-house); made in house
Briefly: TNKS2 activity ELISA (autoparsylation assay). The series is classed as biochemical. As to conditions: GST-tagged Tnks-2 (873-1166 aa); read-out: IC50 [M] TNKS2 ELISA. The essentials: as §6

Converted amounts (≈) assume the structure as drawn. Where a name gives a salt, the structure may show the parent alone.

T2 sequence (O95271 1023-1327): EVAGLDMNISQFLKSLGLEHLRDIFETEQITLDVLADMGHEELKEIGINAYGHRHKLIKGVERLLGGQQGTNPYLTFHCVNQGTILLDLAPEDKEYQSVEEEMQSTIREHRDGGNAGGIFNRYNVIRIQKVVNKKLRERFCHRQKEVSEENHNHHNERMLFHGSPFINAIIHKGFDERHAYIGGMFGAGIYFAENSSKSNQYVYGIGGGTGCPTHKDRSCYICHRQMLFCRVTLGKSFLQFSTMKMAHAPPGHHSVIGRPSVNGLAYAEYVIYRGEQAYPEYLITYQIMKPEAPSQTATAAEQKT
T1 sequence (P09874 whole entry): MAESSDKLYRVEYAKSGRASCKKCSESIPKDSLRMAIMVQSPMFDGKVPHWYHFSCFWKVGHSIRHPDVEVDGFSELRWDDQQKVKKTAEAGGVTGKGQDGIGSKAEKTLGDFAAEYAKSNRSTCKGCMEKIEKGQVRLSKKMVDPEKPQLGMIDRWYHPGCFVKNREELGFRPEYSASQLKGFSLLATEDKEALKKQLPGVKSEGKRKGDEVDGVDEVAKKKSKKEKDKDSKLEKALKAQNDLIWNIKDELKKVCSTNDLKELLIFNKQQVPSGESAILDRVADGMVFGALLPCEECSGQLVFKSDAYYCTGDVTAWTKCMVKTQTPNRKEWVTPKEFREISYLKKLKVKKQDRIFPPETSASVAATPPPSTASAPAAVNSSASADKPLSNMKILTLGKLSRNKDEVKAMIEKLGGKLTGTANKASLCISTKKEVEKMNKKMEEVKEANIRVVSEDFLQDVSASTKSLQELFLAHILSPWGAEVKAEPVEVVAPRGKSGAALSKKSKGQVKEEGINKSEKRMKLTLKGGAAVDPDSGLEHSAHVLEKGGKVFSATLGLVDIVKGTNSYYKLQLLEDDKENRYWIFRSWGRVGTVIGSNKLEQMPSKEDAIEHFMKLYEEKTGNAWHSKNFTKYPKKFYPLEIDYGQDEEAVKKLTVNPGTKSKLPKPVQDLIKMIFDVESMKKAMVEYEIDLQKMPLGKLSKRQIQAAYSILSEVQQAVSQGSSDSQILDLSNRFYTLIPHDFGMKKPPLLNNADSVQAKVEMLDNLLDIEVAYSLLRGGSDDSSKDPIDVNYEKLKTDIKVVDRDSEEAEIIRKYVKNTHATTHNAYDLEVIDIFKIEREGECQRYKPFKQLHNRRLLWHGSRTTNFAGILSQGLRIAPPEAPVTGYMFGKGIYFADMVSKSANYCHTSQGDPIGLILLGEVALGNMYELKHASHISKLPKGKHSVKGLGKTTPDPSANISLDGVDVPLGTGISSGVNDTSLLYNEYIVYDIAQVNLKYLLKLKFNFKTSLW
T3 sequence (Q9H2K2 873-1166): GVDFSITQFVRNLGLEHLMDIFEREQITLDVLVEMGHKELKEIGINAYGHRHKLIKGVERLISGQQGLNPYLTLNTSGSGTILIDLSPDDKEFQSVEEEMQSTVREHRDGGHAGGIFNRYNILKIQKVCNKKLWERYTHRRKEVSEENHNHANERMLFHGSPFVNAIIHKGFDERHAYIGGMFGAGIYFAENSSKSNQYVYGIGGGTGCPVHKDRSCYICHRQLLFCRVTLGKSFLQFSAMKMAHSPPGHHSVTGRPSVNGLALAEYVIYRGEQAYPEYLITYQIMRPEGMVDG

As to `COc1ccc(C(=O)C2CCN(C(=O)CCCc3nc4ccccc4c(=O)[nH]3)CC2)cc1` [Compound A1, 2-{4-[4-(4-methoxy-benzoyl)-piperidin-1-yl]-4-oxo-butyl}-3H-quinazolin-4-one, reference compound], in series [1], the solubility stood at 18 µg/mL (≈ 41.5 µM). Also, the microsomal CLint in series [2] came out at 120 µL/min/mg; in series [3] it was 104 µL/min/mg. The EC50 in series [4] came out at 2e-09 M.

For the molecule `COc1ccc(C(=O)C2CCN(C(=O)CCCc3nc4c(F)cc(F)cc4c(=O)[nH]3)CC2)cc1` [Compound A5, 6,8-difluoro-2-{4-[4-(4-methoxy-benzoyl)-piperidin-1-yl]-4-oxo-butyl}-3H-quinazolin-4-one, reference compound], in series [1], the solubility came to 5 µg/mL (≈ 10.6 µM). Besides, the microsomal CLint in series [2] came out at 86 µL/min/mg; in series [3], 58 µL/min/mg. The EC50 in series [4] is 2.6e-09 M.

Regarding `COc1ccc(C(=O)C2CCN(C(=O)CCCc3nc4c(cnn4C)c(=O)[nH]3)CC2)cc1` [Compound C41, 6-{4-[4-(4-Methoxy-benzoyl)-piperidin-1-yl]-4-oxo-butyl}-1-methyl-1,5-dihydro-pyrazolo[3,4-d]pyrimidin-4-one], the values for the IC50 in series [5], in series [6] and in series [7] were 6300 nM, 0.18 nM and 1.3e-10 M, respectively. Also, the solubility in series [1] was 55 µg/mL (≈ 126 µM). The microsomal CLint in series [2] amounted to 36 µL/min/mg; in series [3] it was 25 µL/min/mg. In series [4], the EC50 amounted to 1.8e-09 M.

On to `COc1ccc(C(=O)C2CCN(C(=O)CCCc3nc4c(cnn4C)c(=O)[nH]3)CC2)cc1F` [Compound C42, 6-{4-[4-(3-Fluoro-4-methoxy-benzoyl)-piperidin-1-yl]-4-oxo-butyl}-1-methyl-1,5-dihydro-pyrazolo[3,4-d]pyrimidin-4-one], for which the IC50 in series [5] was 12000 nM; in series [6], 0.12 nM; in series [7], less than 1e-10 M. Further, in series [1], the concentration in solution (solubility) came to 158 µg/mL (≈ 347 µM). In addition, the intrinsic metabolic clearance (microsomal CLint) in series [2] came to 51 µL/min/mg; in series [3], 16 µL/min/mg. Also, the EC50 in series [4] was determined as 4.8e-09 M.

`COc1ccc(C(=O)C2CCN(C(=O)CCCc3nc4c(cnn4C)c(=O)[nH]3)CC2)cn1` [Compound C43, 6-{4-[4-(6-Methoxy-pyridine-3-carbonyl)-piperidin-1-yl]-4-oxo-butyl}-1-methyl-1,5-dihydro-pyrazolo[3,4-d]pyrimidin-4-one]: the IC50 in series [5] stood at 18000 nM; in series [6] it was 0.52 nM; in series [7], 3.5e-10 M. The molecule also had a solubility in series [1] of 207 µg/mL (≈ 472 µM). The microsomal CLint in series [2] stood at 36 µL/min/mg; in series [3], 15 µL/min/mg. For the same molecule, the EC50 in series [4] amounted to 4.3e-09 M.

For the molecule `Cn1ncc2c(=O)[nH]c(CCCC(=O)N3CCC(c4cnc(N)c(-c5ncccn5)c4)CC3)nc21` [Compound C45, 6-[4-(6-Amino-5-pyrimidin-2-yl-3′,4′,5′,6′-tetrahydro-2′H-[3,4′]bipyridinyl-1′-yl)-4-oxo-butyl]-1-methyl-1,5-dihydro-pyrazolo[3,4-d]pyrimidin-4-one], the IC50 came out at 3800 nM in series [5], 0.26 nM in series [6] and 1.9e-10 M in series [7]. In addition, the solubility in series [1] was 42 µg/mL (≈ 88.7 µM). Also, the figures for the microsomal CLint in series [2] and in series [3] were 62 µL/min/mg and 25 µL/min/mg, respectively. The EC50 in series [4] is 4.9e-10 M.

Turning to `Cn1ncc2c(=O)[nH]c(CCCC(=O)N3CCC(C(=O)c4ccc(F)cc4)CC3)nc21` [Compound C48, 6-{4-[4-(4-Fluoro-benzoyl)-piperidin-1-yl]-4-oxo-butyl}-1-methyl-1,5-dihydro-pyrazolo[3,4-d]pyrimidin-4-one], the IC50 in series [5] worked out at 7300 nM; in series [6] it was 0.45 nM; in series [7] it was 3.1e-10 M. The concentration in solution in series [1] (solubility) was 206 µg/mL (≈ 484 µM). The microsomal CLint in series [2] was 59 µL/min/mg; in series [3], 20 µL/min/mg. Besides, the 50% effective concentration (EC50) in series [4] worked out at 4.4e-09 M.

Turning to `COc1ccc(C(=O)C2CCN(C(=O)CCCc3nc4c(c(=O)[nH]3)COCC4)CC2)cc1` [Compound C52, 2-{4-[4-(4-Methoxy-benzoyl)-piperidin-1-yl]-4-oxo-butyl}-3,5,7,8-tetrahydro-pyrano[4,3-d]pyrimidin-4-one], the IC50 in series [5] amounted to 1900 nM; in series [6], 1.4 nM; in series [7] it was 4.8e-10 M. In series [1], this molecule displayed a solubility of 868 µg/mL (≈ 1970 µM). For the same molecule, the microsomal CLint in series [2] and in series [3] was less than 10 µL/min/mg throughout. The EC50 in series [4] turned out to be 4.6e-09 M.

Turning to `COc1ccc(C(=O)C2CCN(C(=O)CCCc3nc(C)c(C)c(=O)[nH]3)CC2)cc1` [Compound C239, 2-{4-[4-(4-Methoxy-benzoyl)-piperidin-1-yl]-4-oxo-butyl}-5,6-dimethyl-3H-pyrimidin-4-one], the values for the IC50 in series [5], in series [6] and in series [7] were 24000 nM, 2.6 nM and 8.2e-10 M, respectively. Further, the EC50 in series [4] is 1.5e-08 M.

On to `Cc1nc(CCCC(=O)N2CCC(C(=O)c3ccc(F)cc3)CC2)[nH]c(=O)c1C` [Compound C240, 2-{4-[4-(4-Fluoro-benzoyl)-piperidin-1-yl]-4-oxo-butyl}-5,6-dimethyl-3H-pyrimidin-4-one], for which the figures for the IC50 in series [5], in series [6] and in series [7] were 19000 nM, 14 nM and 5.3e-09 M, respectively. In addition, in series [4], the EC50 turned out to be 5.8e-07 M.

For `CCn1cc(C(=O)C2CCN(C(=O)CCCc3nc4c(ccn4C)c(=O)[nH]3)CC2)cn1` [Compound C243, 2-{4-[4-(1-Ethyl-1H-pyrazole-4-carbonyl)-piperidin-1-yl]-4-oxo-butyl}-7-methyl-3,7-dihydro-pyrrolo[2,3-d]pyrimidin-4-one], the results for the IC50 in series [5], in series [6] and in series [7] were 4200 nM, 0.47 nM and 2.2e-10 M, respectively. Further, the EC50 in series [4] came out at 3.4e-08 M.

Consider `Cn1ncc2c(=O)[nH]c(CCCC(=O)N3CCC(C(=O)c4ccc(C(C)(F)F)cc4)CC3)nc21` [Compound C245, 6-(4-{4-[4-(1,1-Difluoro-ethyl)-benzoyl]-piperidin-1-yl}-4-oxo-butyl)-1-methyl-1,5-dihydro-pyrazolo[3,4-d]pyrimidin-4-one], for which the results for the IC50 in series [5], in series [6] and in series [7] were 5800 nM, 0.41 nM and 1.7e-10 M, respectively. In series [4], the EC50 turned out to be 4.8e-09 M.

With `Cn1ncc2c(=O)[nH]c(CCCC(=O)N3CCC(C(=O)c4ccc(F)c(F)c4)CC3)nc21` [Compound C246, 6-{4-[4-(3,4-Difluoro-benzoyl)-piperidin-1-yl]-4-oxo-butyl}-1-methyl-1,5-dihydro-pyrazolo[3,4-d]pyrimidin-4-one], the IC50 came to 13000 nM in series [5], 0.63 nM in series [6] and 3.2e-10 M in series [7]. Moreover, the EC50 in series [4] turned out to be 2.5e-08 M.

As for `O=C(c1ccc(Cl)cc1)C1CCN(C(=O)CCCc2nc3c(c(=O)[nH]2)COCC3)CC1` [Compound C247, 2-{4-[4-(4-Chloro-benzoyl)-piperidin-1-yl]-4-oxo-butyl}-3,5,7,8-tetrahydro-pyrano[4,3-d]pyrimidin-4-one trifluoroacetate], the IC50 in series [5] turned out to be 3500 nM; in series [6], 3.3 nM; in series [7] it was 6.6e-10 M. In series [4], the EC50 came to 2.1e-08 M.

Regarding `Cn1ccc2c(=O)[nH]c(CCCC(=O)N3CCC(C(=O)c4ccc(F)c(F)c4)CC3)nc21` [Compound C248, 2-{4-[4-(3,4-Difluoro-benzoyl)-piperidin-1-yl]-4-oxo-butyl}-7-methyl-3,7-dihydro-pyrrolo[2,3-d]pyrimidin-4-one], the IC50 came out at 2400 nM in series [5], 0.7 nM in series [6] and 2.3e-10 M in series [7]. Moreover, the concentration for a half-maximal effect (EC50) in series [4] was 8.7e-09 M.

On to `Cn1ccc2c(=O)[nH]c(CCCC(=O)N3CCC(C(=O)c4ccc(C(C)(F)F)cc4)CC3)nc21` [Compound C249, 2-(4-{4-[4-(1,1-Difluoro-ethyl)-benzoyl]-piperidin-1-yl}-4-oxo-butyl)-7-methyl-3,7-dihydro-pyrrolo[2,3-d]pyrimidin-4-one], for which the IC50 was found to be 1100 nM in series [5], 0.42 nM in series [6] and 1.2e-10 M in series [7]. For the same molecule, in series [4], the EC50 turned out to be 1.8e-09 M.

As to `COc1ccc(C(=O)C2CN(C(=O)CCCc3cn4cccc4c(=O)[nH]3)C2)cc1` [Compound D1, 3-{4-[3-(4-Methoxy-benzoyl)-azetidin-1-yl]-4-oxo-butyl}-2H-pyrrolo[1,2-a]pyrazin-1-one], the results for the IC50 in series [5], in series [6] and in series [7] were 3100 nM, 120 nM and 8.5e-08 M, respectively. Also, the EC50 in series [4] was determined as 5.4e-07 M.
